Laboratory results: patent US4812393A, “Fluorescent dyes and biological and analytical uses thereof” (priority 1986, dated 1989)

What was measured:
[1] = Fluorescence emission maximum and fluorescence quantum efficiency of the dyes; format: physicochemical
Method: Representative novel dyes of this invention are listed in Table I below in reference to the illustrated structure above. Of these, Compound 4 is preferred for use in biological studies and assays because it can be used at a pH of 7 or less. In Table I, the "fluorescence quantum efficiency" was determined by procedures described by Birks in Standardization in Spectrophotometry and Luminescence Measurements, Mielenz et al (Eds.), Nat. Bureau of Standards Special Publication 466 (1977).

[2] = system: carboxyl esterase, Type I; assay: Determination of an esterase enzyme by hydrolysis of the hydrolyzable substrate (fluorometer); format: biochemical; settings: final enzyme activity 48 I.U., HEPES pH 7.8, excitation 540 nm, emission 610 nm
Method: The hydrolyzable compound used is represented by the structure: [drawing 11]
A test solution was prepared from the following: the hydrolyzable substrate (50 μl of a solution of 0.1 mg/0.5 ml of methanol), 0.05 molar HEPES buffer (3 μl, pH 7.8) and the esterase enzyme carboxyl esterase, Type I (50 μl). A Control solution was similarly prepared by omitting the enzyme. Fluorescence of the released fluorescent dye was measured with a commercially available fluorometer when the enzyme was first added to the test solution and at various times thereafter (excitation at 540 nm and emission at 610 nm). The Control solution was similarly evaluated at the indicated times.

## CCCCOC(=O)c1cc(O)cc2c1cc1c3c(cccc32)C(=O)C=C1 [Compound 7]
[1]; in methanol
  Emission (λmax): 525 nm
  Fluorescence Quantum Efficiency: 0.4

## Cc1cc(O)c(Cl)c2c1cc1c3c(cccc32)C(=O)C=C1 [Compound 3]
[1]; in methanol
  Emission (λmax): 629 nm
  Fluorescence Quantum Efficiency: 0.55

## CC(=O)Oc1cc(C)c2cc3c4c(cccc4c2c1Cl)C(=O)C=C3 [Example 6]
[2]; 0 minutes
  Δ Relative Fluorescence (Minutes) 0: 8.1
[2]; 1 minute
  Δ Relative Fluorescence (Minutes) 1: 31.5
[2]; 2 minutes
  Δ Relative Fluorescence (Minutes) 2: 32.1
[2]; 5 minutes
  Δ Relative Fluorescence (Minutes) 5: 33.3

## Cc1cc(N2CCCC2)cc2c1cc1c3c(cccc32)C(=O)C=C1 [Compound 6]
[1]; in methanol
  Emission (λmax): 655 nm
  Fluorescence Quantum Efficiency: 0.52

## Cc1cc(O)cc2c1cc1c3c(cccc32)C(=O)C=C1 [Compound 2]
[1]; in 5:1 water/methanol
  Emission (λmax): 635 nm
[1]; solvent in 5:1 water/methanol
  Fluorescence Quantum Efficiency: 0.18

## CCCCOC(=O)c1cc(O)cc2c1cc1c3c(cccc32)C(=O)C=C1 [Compound 8]
[1]; in 5:1 water/methanol
  Emission (λmax): 630 nm
[1]; solvent in 5:1 water/methanol
  Fluorescence Quantum Efficiency: 0.3

## Cc1cc(O)cc2c1cc1c3c(cccc32)C(=O)C=C1 [Compound 1]
[1]; in methanol
  Emission (λmax): 542 nm
  Fluorescence Quantum Efficiency: 0.4

## Cc1cc(O)c(Cl)c2c1cc1c3c(cccc32)C(=O)C=C1 [Compound 4]
[1]; in 5:1 water/methanol
  Emission (λmax): 628 nm
[1]; solvent in 5:1 water/methanol
  Fluorescence Quantum Efficiency: 0.42

## CCCCOC(=O)c1cc(O)c(Cl)c2c1cc1c3c(cccc32)C(=O)C=C1 [Compound 9]
[1]; in 5:1 water/methanol
  Emission (λmax): 625 nm
[1]; solvent in 5:1 water/methanol
  Fluorescence Quantum Efficiency: 0.56

## Cc1cc(OC(=O)N(C)c2ccccc2)c(Cl)c2c1cc1c3c(cccc32)C(=O)C=C1 [Compound 5]
[1]; in 5:1 water/methanol
  Emission (λmax): 550 nm
[1]; solvent in 5:1 water/methanol
  Fluorescence Quantum Efficiency: 0.01
